Laboratory results reported in paper PMC5375154, “Atypical protein disulfide isomerases (PDI): Comparison of the molecular and catalytic properties of poplar PDI-A and PDI-M with PDI-L1A” (PLoS ONE, 2017).

Columns and labels:
[1] = molecular target: T1, PDI-M (PtPDI-M) (Populus trichocarpa, UniProt B9IAL5); assay: NADPH/AtNTRB-coupled DTNB reduction, absorbance at […] nm; type: biochemical; details: 200 μM NADPH, 2 μM AtNTRB, 100 μM DTNB, 0.2 μM PDI, pH 8.0, 25°C
T1 construct: gene POPTR_014G160000; pET-15b, His-tagged; E. coli BL21(DE3) pSBET; a°-a-b organisation
T1 sequence (B9IAL5 25-434): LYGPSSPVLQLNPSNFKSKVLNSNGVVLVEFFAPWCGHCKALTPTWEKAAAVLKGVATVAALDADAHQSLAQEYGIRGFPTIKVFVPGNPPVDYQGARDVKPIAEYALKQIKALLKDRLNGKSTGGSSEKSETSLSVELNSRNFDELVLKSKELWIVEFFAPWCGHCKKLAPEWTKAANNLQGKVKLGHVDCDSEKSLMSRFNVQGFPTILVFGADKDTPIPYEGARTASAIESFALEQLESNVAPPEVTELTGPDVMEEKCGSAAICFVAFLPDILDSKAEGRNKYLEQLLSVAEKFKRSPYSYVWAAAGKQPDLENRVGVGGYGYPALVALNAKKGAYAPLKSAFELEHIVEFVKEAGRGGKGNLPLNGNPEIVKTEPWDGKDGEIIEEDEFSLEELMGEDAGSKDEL

[2] = molecular target: T2, PDI-A (PtPDI-A) (Populus trichocarpa, UniProt B9HQP9); assay: UV-visible absorption, iron and sulfide quantification, size-exclusion chromatography; type: binding; details: as isolated after E. coli expression, anaerobic purification; pH 8.0; cluster proposed to bridge a dimer; cluster type not definitively assigned
T2 construct: gene POPTR_009G004500; pET-15b, His-tagged; E. coli BL21(DE3) pSBET; purified anaerobically; ca 15 kDa; dimeric and probable octameric forms; WCKHC active site
T2 sequence (B9HQP9 27-147): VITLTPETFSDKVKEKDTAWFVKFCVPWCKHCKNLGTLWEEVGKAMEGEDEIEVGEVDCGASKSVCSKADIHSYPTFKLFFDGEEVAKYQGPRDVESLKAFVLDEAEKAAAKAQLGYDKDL

How did the DTNB reduction activity [1] turn out when O=C(O)c1cc(SSc2ccc([N+](=O)[O-])c(C(=O)O)c2)ccc1[N+](=O)[O-] [DTNB] was run?
Its DTNB reduction activity is “PDI-L1a was more efficient than PDI-M and PDI-A was inactive (Fig 2C)”.

For [S]1[Fe][S][Fe]1 [[Fe2S2] cluster], which “UV-visible absorption, iron and sulfide quantification, size-exclusion chromatog” value [2] is on record?
Its value is “results could be consistent with PDI-A binding a [Fe2S2] cluster into a dimer”.
